Calls of active or inactive are those of the source. No cut-off for these calls is given here. Residues, ends and D or L forms follow the SMILES beside them.
Columns and labels:
P388 = assay: Cytotoxicity against mouse P388 cells after 48 hrs by MTT assay; format: functional, cell-based; conditions: for IC50: P388, 48 h
Bel-7402 = assay: Cytotoxicity against human Bel7402 cells after 48 hrs by MTT assay; format: functional, cell-based

Compound | Activity (P388) | Activity (Bel-7402) | IC50 (P388) [µM] | IC50 (Bel-7402; Bel-7402, 48 h) [µM]
CC[C@H](C)[C@@H]1NC(=O)[C@H](CC(C)C)NC(=O)[C@@H]2CCCN2C(=O)[C@H](C(C)C)NC(=O)[C@H](Cc2c[nH]c3ccccc23)NC(=O)[C@@H]2CCCN2C(=O)[C@H]([C@@H](C)CC)NC(=O)[C@@H]2CCCN2C1=O (cyclo(IPIPWVPL)) | inactive | inactive | – | –
CC[C@H](C)[C@@H]1NC(=O)[C@H](Cc2c[nH]c3ccccc23)NC(=O)[C@@H]2CCCN2C(=O)[C@H](CC(C)C)NC(=O)[C@@H]2CCCN2C(=O)[C@H]([C@@H](C)O)NC(=O)[C@H](CC(C)C)NC(=O)[C@@H]2CCCN2C1=O [PHAKELLISTATIN 15] (cyclo(IPLTPLPW)) | – | – | 8.5 | –
CC(C)[C@@H]1NC(=O)[C@H](C)NC(=O)[C@H](CCCNC(=N)N)NC(=O)[C@H](CO)NC(=O)[C@H](CC(=O)O)NC(=O)[C@H](Cc2ccccc2)NC(=O)[C@@H]2CCCN2C(=O)[C@H](Cc2ccc(O)cc2)NC(=O)[C@H]([C@@H](C)O)NC1=O [PHAKELLISTATIN 16] (cyclo(AVTYPFDSR)) | – | – | 5.4 | 14.3
